Assay [1] concerns OVCAR‐8 cells. The assay is described as follows: Live-dead imaging of OVCAR-8 cells. Format: cell-based, human. As to conditions: OVCAR-8, 0.5 mM peptide, 6 h, RPMI with 10% FBS; negative peptide added first, then positive. The method, then:
We used the human ovarian cancer cell line OVCAR‐8 as our initial model to identify the effect of the peptides on cells. All cell culture experiments were performed in an RPMI cell culture medium with 10% FBS. At 0.5 mM (i.e., above the overall CAC), the individual peptides mixed on the cells by promptly adding the first negative, then positive counterparts. The viability of the cells was measured for 6h through live‐dead imaging (Figure 3A). […] Because the peptides, if aggregate, form one‐dimensional structures, the shape of the aggregates is not likely to be effective on the action of the peptides. [II] has the lowest CAC and highest ordered aggregation (Figure 2B–D). Additionally, the equilibrium time of [II] aggregations was the shortest among the tried groups (Table 1 ). These all indicate that [II] peptides have the highest affinity to each other, which creates aggregations strong and fast enough to induce cell death.
To understand the effect of peptide aggregates versus peptides alone on the cell death identified with [WW] and [II], we performed a live/dead assay with individual peptides at 0.5 mM after 6h (Figure 3A). […] Similarly, the negative [WW] […] Positive charged peptides containing W are promiscuous residues for membrane damaging peptides, possibly because of W's “anchoring” role; W is abundant in membrane proteins, particularly near the lipid–water interface.^[ [37], [38] ^]
Positively and negatively charged self‐assembling peptides were mixed 30 min prior to experiment except where otherwise stated. The viability of the cell lines was measured by using CellTiter‐Glo 2.0 Reagent (Promega G9248). The luminescent signal was measured in accordance with the manufacturer's instructions. Measurements were carried out with BioTek Neo2SM microplate reader and relative viability was calculated. Live‐Dead assay was carried out using Viability/Cytotoxicity Assay kit (BIOTIUM 30002). After peptide treatment, cells were treated with calcein and ethidium homodimer in accordance with the manufacturer's instructions. […]

Assay [2] deals with OVCAR‐8 cells. The assay is described as follows: Caspase-3 and GSDME cleavage, western blot. Format: cell-based, human. To be noted: OVCAR-8, 50 µM cisplatin for 24 h. An excerpt:
Regulated cell death via an inducer is concentration and time‐dependent and therefore controllable. On the other hand, unregulated cell death cannot be controlled to the same extent as it mainly results from mechanical forces or temperature. The unregulated cell death releases an instantaneous burst of DAMPs, while the DAMP release from regulated cell death is prolonged. Therefore, regulated ICD is desired for a controlled immune response. Regulated necrotic cell deaths are caspase‐dependent.^[ [50], [51] ^] To identify whether [II]‐induced cell death is regulated, we analyzed the cleavage of caspase‐3, a known mediator of apoptosis, and GSDME mediated pyroptosis (regulated necrosis).^[ [2], [52] ^] We compared the caspase‐3 cleavage among different cell death modalities; we used cisplatin ‐ a known apoptosis inducer in the OVCAR‐8 cell line.^[ [53] ^] We also used heat treatment to induce multiple cell death modalities, including necrosis, apoptosis, and necroptosis.^[ [54] ^] Additionally, we applied a freeze/thaw (F/T) method, a common technique to induce unregulated necrosis.^[ [55] ^] […]
Protein samples were diluted in Laemmli buffer and boiled for 5 min at 96 °C. […] Lastly, western blotting luminol reagent solution was added on top of the membranes, and chemiluminescence signal was detected by Azure c600 Imaging Biosystems.
On the technique in general: In western blotting, separated proteins are transferred to a membrane and probed.

As for KFFWWK, the “Cell viability / cell death, live-dead imaging” value in the assay with OVCAR‐8 cells [1] is “induced the cell death”.
For `N.N.[Cl][Pt][Cl]` [Cisplatin, cisplatin], in the assay with OVCAR‐8 cells [2], the Caspase-3 cleavage result was “showed caspase‐3 cleavage”.
On to KFFIIK, for which the “Cell viability / cell death, live-dead imaging” value in the assay with OVCAR‐8 cells [1] is “does not cause cell death”.
On the same count and under the same terms, the same measure for EFFWWE: “did not show any cell death”.

These data come from publication PMC9313945, “Peptide Aggregation Induced Immunogenic Rupture (PAIIR)” (Advanced Science, 2022).
